# Patent publication US20230348424A1, “HETEROCYCLIC COMPOUNDS AND METHODS OF USE” (Schrödinger, Inc., priority 2022, published 2023)
# Target: SOS1:KRAS (G12C) interaction (Homo sapiens (Human), UniProt Q07889)
# Experiment: SOS1 KRas(G12C) FRET Assay
# Assay type: binding
# Conditions: 0.5 nM His10-SOS1 (res. 564-1049), 2.5 nM GST-KRAS G12C (res. 1-169), 2 hrs at RT
# Summary of the method: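 GST-KRAS G12C (res. 1-169) at 2.5 nM and His10-SOS1 (res. 564-1049) at 0.5 nM, final, in PBS with 0.1% BSA, 5 mM MgCl2, 100 mM KF, 5 mM DTT and 0.5% DMSO. After 2 h at RT, FRET read at 665/615 nm and normalized to DMSO and no-SOS1 controls. IC50 by non-linear regression.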
# SOS1:KRAS (G12C) interaction, sequence (Q07889 564-1049, stated change not applied): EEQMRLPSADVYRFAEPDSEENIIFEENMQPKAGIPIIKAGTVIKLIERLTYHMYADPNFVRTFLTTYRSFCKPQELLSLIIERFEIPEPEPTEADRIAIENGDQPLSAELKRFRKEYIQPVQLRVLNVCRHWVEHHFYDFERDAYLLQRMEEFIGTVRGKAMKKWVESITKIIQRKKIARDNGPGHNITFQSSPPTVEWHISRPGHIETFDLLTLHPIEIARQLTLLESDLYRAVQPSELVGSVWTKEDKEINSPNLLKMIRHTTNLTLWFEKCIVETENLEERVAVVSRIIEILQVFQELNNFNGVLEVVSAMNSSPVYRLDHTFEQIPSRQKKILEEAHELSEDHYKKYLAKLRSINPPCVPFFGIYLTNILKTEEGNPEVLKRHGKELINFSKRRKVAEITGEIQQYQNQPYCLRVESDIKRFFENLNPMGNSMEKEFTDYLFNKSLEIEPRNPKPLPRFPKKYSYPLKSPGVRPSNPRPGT
row,SMILES,IC50
1,"CN1C[C@@H]2[C@H](C1)[C@H]2Nc1cc(=O)n(C2(C(F)F)CC2)cc1C(=O)N[C@H](c1cccc(C(F)F)c1F)C(F)F [Example 159, N-((R)-1-(3-(difluoromethyl)-2-fluorophenyl)-2,2-difluoroethyl)-1-(1-(difluoromethyl)cyclopropyl)-4-(((1R,5S,6s)-3-methyl-3-azabicyclo[3.1.0]hexan-6-yl)amino)-6-oxo-1,6-dihydropyridine-3-carboxamide]",1060 nM
2,"C[C@@H](NC(=O)c1cn(C23CC(C2)C3)c(=O)cc1N[C@H]1[C@@H]2CN(C)C[C@@H]21)c1cccc(C(F)(F)F)c1 [Example 160, 1-(bicyclo[1.1.1]pentan-1-yl)-4-(((1R,5S,6s)-3-methyl-3-azabicyclo[3.1.0]hexan-6-yl)amino)-6-oxo-N-((R)-1-(3-(trifluoromethyl)phenyl)ethyl)-1,6-dihydropyridine-3-carboxamide]",21.4 nM
3,"C[C@@H](NC(=O)c1cn(C23CC(C2)C3)c(=O)cc1N[C@H]1[C@@H]2CN(C)C[C@@H]21)c1cccc(S(F)(F)(F)(F)F)c1 [Example 161, 1-(bicyclo[1.1.1]pentan-1-yl)-4-(((1R,5S,6s)-3-methyl-3-azabicyclo[3 .1.0]hexan-6-yl)amino)-6-oxo-N-((R)-1-(3-(pentafluoro-16-sulfaneyl)phenyl)ethyl)-1,6-dihydropyridine-3-carboxamide]",24 nM
4,"C[C@@H](NC(=O)c1cn(C23CC(C2)C3)c(=O)cc1N[C@H]1[C@@H]2CN(C)C[C@@H]21)c1cccc(S(F)(F)(F)(F)F)c1F [Example 162, 1-(bicyclo[1.1.1]pentan-1-yl)-N-((R)-1-(2-fluoro-3-(pentafluoro-16-sulfaneyl)phenyl)ethyl)-4-(((1R,5S,6s)-3-methyl-3-azabicyclo[3.1.0]hexan-6-yl)amino)-6-oxo-1,6-dihydropyridine-3-carboxamide]",27.8 nM
5,"C[C@@H](NC(=O)c1cn(C2CCC2)c(=O)cc1N[C@H]1[C@@H]2CN(C)C[C@@H]21)c1cccc(S(F)(F)(F)(F)F)c1 [Example 163, 1-cyclobutyl-4-(((1R,5S,6s)-3-methyl-3-azabicyclo[3.1.0]hexan-6-yl)amino)-6-oxo-N-((R)-1-(3-(pentafluoro-16-sulfaneyl)phenyl)ethyl)-1,6-dihydropyridine-3-carboxamide]",29.3 nM
6,"C[C@@H](NC(=O)c1cn(C2CCC2)c(=O)cc1NC1CCN(C)CC1)c1cccc(S(F)(F)(F)(F)F)c1 [Example 164, (R)-1-cyclobutyl-4-((1-methylpiperidin-4-yl)amino)-6-oxo-N-(1-(3-(pentafluoro-16-sulfaneyl)phenyl)ethyl)-1,6-dihydropyridine-3-carboxamide]",13.5 nM
7,"CC(NC(=O)c1cn(C2(C(F)F)CC2)c(=O)cc1NC1CCN(C)CC1)c1ccc(C2CC2)c(C(F)(F)F)c1 (centres unmarked) [Example 169, N-(1-(4-cyclopropyl-3-(trifluoromethyl)phenyl)ethyl)-1-(1-(difluoromethyl)cyclopropyl)-4-((1-methylpiperidin-4-yl)amino)-6-oxo-1,6-dihydropyridine-3-carboxamide]",5900 nM
8,"CC(NC(=O)c1cn(C2(C(F)F)CC2)c(=O)cc1NC1CCN(C)CC1)c1cccc(C(F)(F)F)c1Cl (centres unmarked) [Example 170, N-(1-(2-chloro-3-(trifluoromethyl)phenyl)ethyl)-1-(1-(difluoromethyl)cyclopropyl)-4-((1-methylpiperidin-4-yl)amino)-6-oxo-1,6-dihydropyridine-3-carboxamide]",40.9 nM
9,"C[C@@H](NC(=O)c1cn(C23CC(C2)C3)c(=O)cc1N[C@H]1[C@@H]2CN(C)C[C@@H]21)c1cccc(C#N)c1F [Example 179, 1-(bicyclo[1.1.1]pentan-1-yl)-N-((R)-1-(3-cyano-2-fluorophenyl)ethyl)-4-(((1R,5S,6s)-3-methyl-3-azabicyclo[3.1.0]hexan-6-yl)amino)-6-oxo-1,6-dihydropyridine-3-carboxamide]",70.7 nM
10,"C[C@@H](NC(=O)c1cn(C2(C(F)F)CC2)c(=O)cc1N[C@H]1CN2CCC1(F)CC2)c1cccc(C(F)F)c1F [Example 186, N-((R)-1-(3-(difluoromethyl)-2-fluorophenyl)ethyl)-1-(1-(difluoromethyl)cyclopropyl)-4-(((S)-4-fluoroquinuclidin-3-yl)amino)-6-oxo-1,6-dihydropyridine-3-carboxamide]",27.5 nM
11,"C[C@@H](NC(=O)c1cn(C2(C(F)F)CC2)c(=O)cc1N[C@@H]1CN2CCC1(F)CC2)c1cccc(C(F)F)c1F [Example 187, N-((R)-1-(3-(difluoromethyl)-2-fluorophenyl)ethyl)-1-(1-(difluoromethyl)cyclopropyl)-4-(((R)-4-fluoroquinuclidin-3-yl)amino)-6-oxo-1,6-dihydropyridine-3-carboxamide]",22.3 nM

# More lines, now with the values ahead:
row,IC50,SMILES
1,1180 nM,"COc1ccc(C(C)NC(=O)c2cn(C3(C(F)F)CC3)c(=O)cc2NC2CCN(C)CC2)cc1C(F)(F)F (centres unmarked) [Example 173, 1-(1-(difluoromethyl)cyclopropyl)-N-(1-(4-methoxy-3-(trifluoromethyl)phenyl)ethyl)-4-((1-methylpiperidin-4-yl)amino)-6-oxo-1,6-dihydropyridine-3-carboxamide]"
2,1180 nM,"C[C@@H](NC(=O)c1cn(C2(C(F)F)CC2)c(=O)cc1N[C@H]1[C@@H]2CN(C)C[C@@H]21)c1cccc(C(F)(F)c2ccncc2)c1F [Example 174, N-((R)-1-(3-(difluoro(pyridin-4-yl)methyl)-2-fluorophenyl)ethyl)-1-(1-(difluoromethyl)cyclopropyl)-4-(((1R,5S,6s)-3-methyl-3-azabicyclo[3.1.0]hexan-6-yl)amino)-6-oxo-1,6-dihydropyridine-3-carboxamide]"
3,13 nM,"C[C@H](NC(=O)c1cn(C2(C(F)F)CC2)c(=O)cc1N[C@H]1[C@@H]2CN(C)C[C@@H]21)c1cccc(C(F)(F)c2ccncc2)c1F [Example 175, N-((S)-1-(3-(difluoro(pyridin-4-yl)methyl)-2-fluorophenyl)ethyl)-1-(1-(difluoromethyl)cyclopropyl)-4-(((1R,5S,6s)-3-methyl-3-azabicyclo[3.1.0]hexan-6-yl)amino)-6-oxo-1,6-dihydropyridine-3-carboxamide]"
4,109 nM,"CC(NC(=O)c1cn(C2(C(F)F)CC2)c(=O)cc1N[C@H]1[C@@H]2CN(C)C[C@@H]21)c1cccc(C(F)(F)c2cocn2)c1F (stereo partly drawn) [Example 176, N-(1-(3-(difluoro(oxazol-4-yl)methyl)-2-fluorophenyl)ethyl)-1-(1-(difluoromethyl)cyclopropyl)-4-(((1R,5S,6s)-3-methyl-3-azabicyclo[3.1.0]hexan-6-yl)amino)-6-oxo-1,6-dihydropyridine-3-carboxamide]"
5,113 nM,"C[C@@H](NC(=O)c1cn(C23CC(C2)C3)c(=O)cc1N[C@H]1[C@@H]2CN(C)C[C@@H]21)c1cccc(OC(F)F)c1Cl [Example 180, 1-(bicyclo[1.1.1]pentan-1-yl)-N-((R)-1-(2-chloro-3-(difluoromethoxy)phenyl)ethyl)-4-(((1R,5S,6s)-3-methyl-3-azabicyclo[3.1.0]hexan-6-yl)amino)-6-oxo-1,6-dihydropyridine-3-carboxamide]"
6,79.8 nM,"Cc1c(C#N)cccc1[C@@H](C)NC(=O)c1cn(C23CC(C2)C3)c(=O)cc1N[C@H]1[C@@H]2CN(C)C[C@@H]21 [Example 181, 1-(bicyclo[1.1.1]pentan-1-yl)-N-((R)-1-(3-cyano-2-methylphenyl)ethyl)-4-(((1R,5S,6s)-3-methyl-3-azabicyclo[3.1.0]hexan-6-yl)amino)-6-oxo-1,6-dihydropyridine-3-carboxamide]"
7,33.8 nM,"C[C@@H](NC(=O)c1cn(C2(C(F)F)CC2)c(=O)cc1NCC12CC(O)(C1)C2)c1cccc(C(F)F)c1F [Example 182, (R)-N-(1-(3-(difluoromethyl)-2-fluorophenyl)ethyl)-1-(1-(difluoromethyl)cyclopropyl)-4-(((3-hydroxybicyclo[1.1.1]pentan-1-yl)methyl)amino)-6-oxo-1,6-dihydropyridine-3-carboxamide]"
8,30.7 nM,"C[C@@H](NC(=O)c1cn(C2(C(F)F)CC2)c(=O)cc1NCC1(F)CN(C)C1)c1cccc(C(F)F)c1F [Example 185, (R)-N-(1-(3-(difluoromethyl)-2-fluorophenyl)ethyl)-1-(1-(difluoromethyl)cyclopropyl)-4-(((3-fluoro-1-methylazetidin-3-yl)methyl)amino)-6-oxo-1,6-dihydropyridine-3-carboxamide]"
9,41.3 nM,"C[C@@H](NC(=O)c1cn(C2(C(F)F)CC2)c(=O)cc1NC[C@@H]1CCCN1C)c1cccc(C(F)F)c1F [Example 188, N-((R)-1-(3-(difluoromethyl)-2-fluorophenyl)ethyl)-1-(1-(difluoromethyl)cyclopropyl)-4-((((S)-1-methylpyrrolidin-2-yl)methyl)amino)-6-oxo-1,6-dihydropyridine-3-carboxamide]"
10,16.3 nM,"C[C@@H](NC(=O)c1cn(C23CC(C2)C3)c(=O)cc1NC12CC(N)(C1)C2)c1cccc(C(F)F)c1F [Example 189, (R)-4-((3-aminobicyclo[1.1.1]pentan-1-yl)amino)-1-(bicyclo[1.1.1]pentan-1-yl)-N-(1-(3-(difluoromethyl)-2-fluorophenyl)ethyl)-6-oxo-1,6-dihydropyridine-3-carboxamide]"
11,315 nM,"C[C@@H](NC(=O)c1cn(C23CC(C2)C3)c(=O)cc1N)c1cccc(C(F)F)c1F [Example 190, (R)-4-amino-1-(bicyclo[1.1.1]pentan-1-yl)-N-(1-(3-(difluoromethyl)-2-fluorophenyl)ethyl)-6-oxo-1,6-dihydropyridine-3-carboxamide]"
12,140 nM,"CC(Nc1cc(=O)n(C2(C(F)F)CC2)cc1C(=O)N[C@H](C)c1cccc(C(F)F)c1F)C1(CO)CC1 (stereo partly drawn) [Example 191, N-((R)-1-(3-(difluoromethyl)-2-fluorophenyl)ethyl)-1-(1-(difluoromethyl)cyclopropyl)-4-((1-(1-(hydroxymethyl)cyclopropyl)ethyl)amino)-6-oxo-1,6-dihydropyridine-3-carboxamide]"
